Measurements taken from patent US20170158636A1, “FUNCTIONALISED AND SUBSTITUTED CARBAZOLES AS ANTI-CANCER AGENTS” (Novogen Ltd., priority 2014, published 2017).

Tests used:
TNF-α = experiment: Cytokine release from LPS-stimulated PBMCs (HTRF); assay type: cell-based; settings: PBMC, human PBMCs
Description: (§1) The ability of compounds 1004, 1007 and 1018 to inhibit the release of cytokines TNF-α, IFN-γ, IL-6, IL-21, IL-17A and IL-23 was evaluated in vitro (Tables 2 and 3). Briefly, human peripheral blood mononuclear cells (PBMCs) were isolated from human peripheral blood by Histopaque density gradient centrifugation. The freshly isolated PBMCs were seeded at 50,000 cells/well in a 96-well half area plate. PBMCs were dosed with the test compounds (at 10 μM, 1 μM and 0.1 μM) and then incubated at 37° C. and 5% CO2 for 2 hours. To stimulate release of the cytokines IFN-γ, IL-21, IL-17A and IL-23, the PBMCs were treated with 50 ng/mL of phorbol 12-myristate 13-acetate (PMA) and 1 μg/mL of ionomycin and to stimulate the release of TNF-α and IL-6, PBMCs were treated with 100 ng/mL of lipopolysaccharide (LPS) from gram-negative bacteria. The PBMCs were then incubated at 37° C. and 5% CO2 for a further 6 hours and the cell supernatant was collected and a Homogenous Time Resolved Fluorescence (HTRF) assay was carried out following the manufacturer's instructions. Cytokine release from the PBMCs was captured using a Perkin Elmer ENVISION 2104 microplate reader set at 615 nm and 665 nm respectively.

IL-6 = experiment: Cytokine release from LPS-stimulated PBMCs (HTRF); assay type: cell-based; settings: PBMC, human PBMCs
Description: as §1

IL-23 = experiment: Cytokine release from PMA/ionomycin-stimulated PBMCs (HTRF); assay type: cell-based; settings: PBMC, human PBMCs, PMA and ionomycin
Description: as §1

IL-17A = experiment: as above; assay type: cell-based; settings: PBMC, human PBMCs, PMA and ionomycin
Description: as §1

IL-21 = experiment: as above; assay type: cell-based; settings: PBMC, human PBMCs, PMA and ionomycin
Description: as §1

IFN-γ = experiment: as above; assay type: cell-based; settings: PBMC, human PBMCs, PMA and ionomycin
Description: as §1

[1] = test system: DU145 prostate cancer cells; experiment: Anti-proliferative activity, cell-titre luminescent viability assay; assay type: cell-based; settings: Homo sapiens, DU-145, 72 hours exposure
Description: (§2) The ability of compounds 1001-1018 and 1037-1039 to inhibit the proliferation of cancer cells representative of neuroblastoma, melanoma, prostate cancer, colorectal cancer, non-small cell lung carcinoma, and triple negative breast cancer was assessed (Table 1).
(§3) Briefly, a pre-determined number of cells as calculated from cell growth assays for each of the cell lines employed were seeded into their respective culture medium (using ATCC culture parameters—http://www.atcc.org) and cultured for 24 hours at 37° C. and 5% CO2 in 96-well culture plates. Once attached, each cell line was then exposed to increasing concentrations of each respective analogue (0.03, 0.3, 3 and 30 μM for compounds 1001-13 and 1015-18; 0.1, 0.3, 1, 3, 10 and 30 μM for compounds 1014 and 1037-39), cultured for a further 72 hours and exposed to cell-titre luminescent reagent (100 μL/well) for a further 30 minutes) to measure cell viability. Luminescence was captured using an EnVision multilabel reader and the data for each analogue concentration compared against no treatment control. For compounds 1001-13 and 1015-18, semi-log plots of Percent of Control versus concentration were prepared and IC50 determined using linear regression analysis. For compounds 1014 and 1037-39, cell viability was normalized to control (vehicle alone) and dose-response curves, and half maximal effective concentration (EC50) values were determined using Graph Pad Prism 6 (nonlinear regression sigmoidal dose-response variable slope).

[2] = test system: PC3 prostate cancer cells; experiment: as above; assay type: cell-based; settings: 72 hours exposure
Description: as §2, §3

[3] = test system: CaCo2 colorectal cancer cells; experiment: as above; assay type: cell-based; settings: Homo sapiens, Caco-2, 72 hours exposure
Description: as §2, §3

[4] = test system: SK-N-SH neuroblastoma cells; experiment: as above; assay type: cell-based; settings: Homo sapiens, 72 hours exposure
Description: as §2, §3

SK-Mel-28 melanoma cells = experiment: as above; assay type: cell-based; settings: Homo sapiens, 72 hours exposure
Description: as §2, §3

[5] = test system: MDA-MB-231 breast cancer cells; experiment: as above; assay type: cell-based; settings: Homo sapiens, 72 hours exposure
Description: as §2, §3

[6] = test system: A549 lung (NSLC) cancer cells; experiment: as above; assay type: cell-based; settings: Homo sapiens, 72 hours exposure
Description: as §2, §3

[7] = test system: actin cytoskeleton in SK-N-SH neuroblastoma cells; experiment: Microfilament disruption assay (phalloidin staining, linear feature quantitation); assay type: cell-based; settings: 0-40 μM, 24 hours post treatment
Description: FIG. 1: Imaging and quantitation of actin filaments in SK-N-SH neuroblastoma cells treated with compound (A) 1007, (B) 1013 and (C) 1016. Cells were stained with 488-Atto-Phallodin and DAPI to visualize the actin filament bundles and the nucleus, respectively. Shown in the top panel is a representative gray scale immunofluorescent image from control (vehicle alone), 5 μM and 10 μM treated cells. […] The coloured lines indicate the detected actin filaments. Also shown is the quantitation of cell number, filament number/cell and filament number/cell area (μM^2). Statistical analysis was performed using a one way ANNOVA-multiple comparison where each drug treated group was compared to the control. ****p<0.0001, […].
The ability of compounds 1007, 1013 and 1016 to disrupt the actin cytoskeleton was assessed in vitro using the microfilament disruption assay (FIG. 1).
Briefly, SK-N-SH neuroblastoma cells were seeded at 1800 cells/well in a 384 Perkin Elmer High Content Imaging “Cell Carrier” plate and left to plate down 24 hours prior to treatment. Cells were then treated with 0-40 μM of the test compounds (1:2 serial dilution in a 10 point dose response). 24 hours post treatment, cells were fixed with 4% w/v paraformaldehyde (PBS), permeabilized with Triton-X-100 and stained with 488-Atto-Phallodin and DAPI to visualize the actin filament bundles and the nucleus respectively. Single plane images were obtained on the Perkin Elmer Opera confocal microscope using a 20× objective. Twelve fields of view per condition (representing approximately 300-800 cells) were imaged. Images were then exported and changes in the organization and numbers of actin filaments within the cell were quantitated using a linear feature detection algorithm developed by CSIRO (Vindin et al. 2014). This algorithm detects the “ridge lines” or “peaks” in local pixel intensity in the cell image. It is these “ridge lines” that correspond to actin filament bundles and allow us to quantitate the number of filaments per cell.

[8] = test system: Tpm3.1-containing actin filaments in SK-N-SH neuroblastoma cells; experiment: Disruption of Tpm3.1-containing actin filaments (γ9d staining); assay type: cell-based; settings: SK-N-SH cells, 0, 5 and 7.5 μM, 48 hours post treatment
Description: FIG. 2: Imaging and quantitation of Tpm3.1-containing actin filaments in SK-N-SH neuroblastoma cells treated with compound (A) 1007, (B) 1013 and (C) 1016. Cells were stained with γ9d (sheep polycolonal, 1:100) followed by 488-conjugated secondary (1:1000) and DAPI to visualize the Tpm3.1 containing filament bundles and the nucleus, respectively. Shown in the top panel is a representative gray scale immunofluorescent image from control (vehicle alone), 5 μM and 7.5 μM treated cells. […] The coloured lines indicate the detected Tpm3.1 containing actin filaments. Also shown is the quantitation of cell number, Tpm3.1 filament number/cell and Tpm3.1 filament number/cell area (μM^2). Statistical analysis was performed using a one way ANNOVA-multiple comparison where each drug treated group was compared to the control. ****p<0.0001.
Another assay was conducted to assess the ability of compounds 1007, 1013 and 1016 to specifically disrupt actin filaments containing Tpm3.1 (FIG. 2). Briefly, SK-N-SH neuroblastoma cells were seeded at 2×10^4 cells/mL in a 10 cm tissue culture plate and left to plate down 24 hours prior to treatment. Cells were then treated with 0, 5 and 7.5 μM of the test compounds. 48 hours post treatment, cells were fixed with 4% w/v paraformaldehyde (PBS), permeabilized with Triton-X-100 and stained with γ9d (sheep polycolonal, 1:100) followed by 488-conjugated secondary (1:1000) and DAPI to visualize the Tpm3.1 containing filament bundles and the nucleus, respectively. Single plane images were obtained on the Zeiss epifluorescent Axioscope microscope using a 20× objective. Six fields of view per condition were imaged. Images were then exported and the linear features (actin filaments containing Tpm3.1) were then quantitated using the linear feature detection algorithm described above.

Skeletal myosin II = experiment: Actin-activated myosin II ATPase activity; assay type: biochemical; settings: 50 μM, absence of Tpm3.1
Description: FIG. 4: Effect of anti-tropomyosin compounds on actin-activated myosin II ATPase activity. Skeletal myosin II (30-60 nM) was incubated with 1% (v/v) DMSO or 50 μM of Blebbistatin, TR100 or compound 1001 for 5 min prior to mixing with 3 μM F-actin. Reactions were initiated with 1 mM ATP and inorganic phosphate release was detected spectrophotometrically. Data represents mean±SEM, for n=2-4 independent repeats. **P-value, 0.001<0.01.
To exclude an off-target activity, the impact of compound 1001 and TR100 (another small molecule with anti-tropomyosin activity) on myosin II ATPase activity was evaluated in the absence of Tpm3.1. The small molecule blebbistatin was included as a positive control known to inhibit myosin II ATPase activity. Blebbistatin acts by binding to the myosin-ADP-Pi complex and slowing the release of inorganic phosphate (Kovacs et al., 2004). Myosin II was pre-incubated with 50 μM of blebbistatin, TR100 or 1001 prior to mixing with F-actin. […] Compound 1001 had no effect on myosin ATPase activity at equivalent concentrations to that of TR100 (FIG. 4).

SMILES | inhibition at 0.1 µM (TNF-α) [%] | inhibition at 1 µM (TNF-α) [%] | inhibition at 10 µM (TNF-α) [%] | inhibition at 0.1 µM (IL-6) [%] | inhibition at 1 µM (IL-6) [%] | inhibition at 10 µM (IL-6) [%] | inhibition at 0.1 µM (IL-23) [%] | inhibition at 1 µM (IL-23) [%] | inhibition at 10 µM (IL-23) [%] | inhibition at 0.1 µM (IL-17A) [%] | inhibition at 1 µM (IL-17A) [%] | inhibition at 10 µM (IL-17A) [%] | inhibition at 0.1 µM (IL-21) [%] | IC50 [1] [nM] | IC50 [2] [nM] | IC50 [3] [nM] | IC50 [4] [nM] | IC50 (SK-Mel-28 melanoma cells) [nM] | IC50 [5] [nM] | IC50 [6] [nM] | also measured
CN(C)CCCn1c2ccccc2c2cc(C(=O)N3CCN(CCc4ccc5c(c4)OCO5)CC3)ccc21 [Compound 1004, (4-(2-(benzo[d][1,3]dioxol-5-yl)ethyl)piperazin-1-yl)(9-(3-(dimethylamino)propyl)-9H-carbazol-3-yl)methanone] | 9 | -8 | 1 | -9 | -10 | 2 | -16 | 9 | 22 | -2 | 6 | 47 | -6 | 3300 | 2900 | 3700 | 2900 | 3500 | 3800 | 3400 | inhibition at 1 µM (IL-21): -3%; inhibition at 10 µM (IL-21): 2%; inhibition at 0.1 µM (IFN-γ): -19%; inhibition at 1 µM (IFN-γ): -6%; inhibition at 10 µM (IFN-γ): -7%
CN1CCN(CCCn2c3ccccc3c3cc(C(=O)N4CCN(CCc5ccc(F)cc5)CC4)ccc32)CC1 [Compound 1013, (4-(4-fluorophenethyl)piperazin-1-yl)(9-(3-(4-methylpiperazin-1-yl)propyl)-9H-carbazol-3-yl)methanone] |  |  |  |  |  |  |  |  |  |  |  |  |  | 3500 | 3300 | 2000 | 2400 | 2000 | 2800 | 3700 | disruption of the actin cytoskeleton [7]: disrupt the actin cytoskeleton in a dose-dependent manner; disruption of Tpm3.1-containing actin filaments [8]: disrupt Tpm3.1-containing actin filaments in a dose-dependent manner
CN1CCN(CCCn2c3ccccc3c3cc(C(=O)N4CCN(CCc5cccc(F)c5)CC4)ccc32)CC1 [Compound 1016, (4-(3-fluorophenethyl)piperazin-1-yl)(9-(3-(4-methylpiperazin-1-yl)propyl)-9H-carbazol-3-yl)methanone] |  |  |  |  |  |  |  |  |  |  |  |  |  | 2800 | 4000 | 3100 | 2700 | 2400 | 2500 | 3000 | disruption of the actin cytoskeleton [7]: disrupt the actin cytoskeleton in a dose-dependent manner; disruption of Tpm3.1-containing actin filaments [8]: disrupt Tpm3.1-containing actin filaments in a dose-dependent manner
CN1CCN(CCCn2c3ccccc3c3cc(C(=O)N4CCN(CCc5ccccc5)CC4)ccc32)CC1 [Compound 1018, (4-phenethylpiperazin-1-yl)(9-(3-(4-methylpiperazin-1-yl)propyl)-9H-carbazol-3-yl)methanone] | 26 | 58 | 77 | 22 | 56 | 89 | -6 | -2 | 58 | 2 | 34 | 45 | 13 | 3300 | 2900 | 1500 | 1900 | 2500 | 1600 | 2000 | inhibition at 1 µM (IL-21): 33%; inhibition at 10 µM (IL-21): 50%; inhibition at 0.1 µM (IFN-γ): 2%; inhibition at 1 µM (IFN-γ): 19%; inhibition at 10 µM (IFN-γ): 92%
CCCCCCCCNC(=O)/C(C#N)=C/c1c(C)n(CCCN(C)C)c2ccccc12 [TR100] |  |  |  |  |  |  |  |  |  |  |  |  |  |  |  |  |  |  |  |  | inhibition of actin-activated myosin ATPase activity (Skeletal myosin II): ~70%
Cc1ccc2c(c1)C(=O)C1(O)CCN(c3ccccc3)C1=N2 (stereo not shown) [blebbistatin] |  |  |  |  |  |  |  |  |  |  |  |  |  |  |  |  |  |  |  |  | effect on actin-activated myosin II ATPase activity (Skeletal myosin II): strongly inhibited
